Patent publication US5840843A, “Synthetic polypeptides as inhibitors of HIV-1” (priority 1995, dated 1998)
Bridge positions count the residues as written; N and C are the ends. Ends that are not written are not given here. I, II: the chains in the order shown.

Experiments:
[1] = tested on: AZT-resistant mutant of HIV-1; experiment: Inhibition of infection by AZT-resistant HIV-1 mutant; format: cell-based; conditions: FIG. 6
Procedure: (§1) For virus inhibition assays, H9, MT-2 and U937 cells were used as target cells. Five HIV-1 isolates (IIIB, MN, RF, SF2, and an AZT-resistant mutant) were cultivated in MT-2 cells, collected, and aliquoted.
(§2) HIV-1 infectivity was determined by two distinct methods; an ELISA measuring HIV-1 core protein p24 production and a colorimetric assay for HIV-mediated cytopathogenesis. Briefly, 1×10^4 MT-2 cells in 96 well plates were infected with dilutions of HIV-1IIIB in 200 μl RPMI 1640 medium with 10% FBS. After 24 hrs., half of the culture medium was changed. On the fourth day after incubation at 37° C., 100 μl of culture supernatant was collected from each well and an equal volume of fresh medium was added to the wells. The collected supernatants were mixed with equal volumes of 5% Triton X-100 and assayed for p24 using a kit from Coulter Immunology (Hialeah, FL). On the sixth day post infection, an indicator XTT tetrazolium dye (1 mg/ml; 50μl/well; PolySciences, Inc., Warrington, Pa.) was added to the cells. After a 4 hr. period, intracellular formazan was determined calorimetrically at 450 nm. The percentage of cytopathogenesis was calculated using the following formula: [(OD450 in negative control-OD450 in experiment)/(OD450 in negative control-OD450 in positive control)] ×100.

[2] = tested on: HIV-1IIIB infected H9 cells; experiment: Inhibition of fusion of HIV-1IIIB infected H9 cells with uninfected H9 cells (syncytium count); format: cell-based
Procedure: The inhibitory effect of the peptide of the present invention on the fusion of HIV-1 infected cells with uninfected cells was also determined. In brief, 1.25×10^4 HIV-1IIIB infected H9 cells were mixed with the peptide and an equal number of uninfected H9 cells.

HIV-1 isolate RF = experiment: Inhibition of infection by HIV-1 isolate RF; format: cell-based; conditions: FIG. 6
Procedure: as §1, §2

MT-2 cells = experiment: Cytotoxicity of peptides for MT-2 cells; conditions: for cytotoxicity: MT-2 cells
Procedure: Subsequently, cytotoxicity studies were performed using MT-2 cells at a final concentration of 12.5 μg/ml.

HIV-1IIIB [3] = experiment: Inhibition of HIV-1IIIB replication in MT-2 cells (p24 ELISA); format: cell-based
Procedure: as §1, §2
Twenty-nine peptides from HIV-1IIIB gp160 (gp120/gp41) and 21 peptides from V3 hypervariable loops of distinct HIV-1 isolates were screened for their inhibitory activity on HIV-1 replication and HIV-1-mediated cytopathogenesis in MT-2 cells.

HIV-1IIIB [4] = experiment: Inhibition of HIV-1IIIB replication in U937 cells (p24 production); format: cell-based; conditions: monocytic cell line U937, FIG. 4
Procedure: as §1, §2

HIV-1 isolate SF2 = experiment: Inhibition of infection by HIV-1 isolate SF2; format: cell-based; conditions: FIG. 6
Procedure: as §1, §2

HIV-1IIIB [5] = experiment: Inhibition of HIV-1IIIB-mediated cytopathogenesis in MT-2 cells (XTT colorimetric assay); format: cell-based
Procedure: as §1, §2
Additionally, studies were performed to determine whether or not any of the peptides could inhibit the cytopathogenesis mediated by HIV-1.

HIV-1 = conditions: FIG. 7
Procedure: Rabbit antiserum directed against this peptide was prepared. […] The mixture was tested for antiviral activity.

HIV-1 isolate MN = experiment: Inhibition of infection by HIV-1 isolate MN; format: cell-based; conditions: FIG. 6
Procedure: as §1, §2

Compound	inhibition of infection (replication and cytopathogenesis) [1]	ED50 for inhibition of cell fusion ([2]; HIV-1IIIB infected H9 cells, FIG. 5) [nM]	inhibition of cell fusion, dimer compared with monomer ([2]; comparative assay, FIG. 8)	inhibition of infection (replication and cytopathogenesis) (HIV-1 isolate RF)	cytotoxicity (MT-2 cells; concentration increased to 11.145 μM)	cytotoxicity (MT-2 cells; final concentration 12.5 μg/ml, FIG. 3)	50% cytotoxic dose (CD50) (MT-2 cells; colorimetric assay)	inhibition of infection (replication and cytopathogenesis) (HIV-1IIIB [3]; HIV-1 isolate IIIB, FIG. 6)	ED50 for inhibition of HIV-1IIIB replication (decrease of gag protein p24 production) (HIV-1IIIB [3]; MT-2 cells, FIG. 5) [nM]	inhibition of HIV-1 replication, dimer compared with monomer (HIV-1IIIB [3]; comparative assay, FIG. 8)	inhibition of HIV-1 replication (decrease of gag protein p24 synthesis) (HIV-1IIIB [3]; final concentration 12.5 μg/ml, MT-2 cells, HIV-1IIIB, FIG. 1)	inhibition of p24 production (HIV-1IIIB [4])	inhibition of infection (replication and cytopathogenesis) (HIV-1 isolate SF2)	ED50 for inhibition of cytopathogenesis mediated by HIV-1IIIB (HIV-1IIIB [5]; MT-2 cells, FIG. 5) [nM]	inhibition of cytopathogenesis mediated by HIV-1 (HIV-1IIIB [5]; MT-2 cells, HIV-1IIIB, FIG. 2)	inhibition of HIV-1-mediated cytopathogenesis, dimer compared with monomer (HIV-1IIIB [5]; comparative assay, FIG. 8)	inhibitory activity on p24 production after incubation with antiserum (HIV-1; peptide 1 μg/ml incubated with rabbit anti-(637-666) antiserum, 37° C., 30 minutes)	inhibition of p24 production (HIV-1; peptide 1 μg/ml, in the absence of antiserum)	inhibition of infection (replication and cytopathogenesis) (HIV-1 isolate MN)
Cc1cn([C@H]2C[C@H](N=[N+]=[N-])[C@@H](CO)O2)c(=O)[nH]c1=O [AZT, 3'azido-3'deoxythymidine, reference compound]	could not be effectively neutralized	–	–	–	–	–	–	–	–	–	–	–	–	–	–	–	–	–	–
I: EWDREINNYTSLIHSLIEESQNQQEKNEQEGGC / II: EWDREINNYTSLIHSLIEESQNQQEKNEQEGGC (disulfide I:33-II:33) [peptide (637-666)]	effectively inhibited infections	160.0	much more effective	effectively inhibited infections	significant cytotoxicity remained undetectable	did not exhibit any cytotoxicity	> 11,145 nM	effectively inhibited infections	101.0	much more effective	significantly inhibited HIV-1 replication	significantly inhibited p24 production	effectively inhibited infections	142.0	markedly inhibited cytopathogenesis	much more effective	significantly blocked	significantly inhibited p24 production	effectively inhibited infections
